Columns and labels:
Assay in all cases: combination Emax (second highest fraction inhibited in the dose matrix, 72 h); higher = more inhibition; extreme values may be limits of the assay
[1] = tested on: NCI-H2591 (Mesothelioma)
In short: (§1)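 Cell lines in DMEM/F12 or RPMI with 10% FBS were plated in 1536-well plates, held 24 hours at 37°C, 5% CO2, then given two-drug dose matrices for 72 hours (DMSO typically 0.2%). Viability was read by CellTiter-Glo 2.0 luminescence and scaled as inhibition from 0 (vehicle wells) to 1 (blank wells). Combination Emax is the second-highest inhibition in the matrix; Bliss excess is observed combination effect minus expected EA + EB − EA·EB, EA and EB being single-agent effects.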

[2] = tested on: 8-MG-BA (Glioblastoma)
In short: as §1

[3] = tested on: A498 (Kidney Carcinoma)
In short: as §1

[4] = tested on: Hs-445 (Non-Cancerous)
In short: as §1

[5] = tested on: SK-MES-1 (Squamous Cell Lung Carcinoma)
In short: as §1

[6] = tested on: COR-L311 (Small Cell Lung Carcinoma)
In short: as §1

[7] = tested on: ARH-77 (Non-Cancerous)
In short: as §1

[8] = tested on: TT2609-C02 (Thyroid Gland Carcinoma)
In short: as §1

[9] = tested on: MDST8 (Colorectal Carcinoma)
In short: as §1

[10] = tested on: A3-KAW (B-Cell Non-Hodgkin's Lymphoma)
In short: as §1

[11] = tested on: NCI-H2141 (Small Cell Lung Carcinoma)
In short: as §1

[12] = tested on: NCI-H1693 (Lung Adenocarcinoma)
In short: as §1

[13] = tested on: KARPAS-422 (B-Cell Non-Hodgkin's Lymphoma)
In short: as §1

[14] = tested on: BICR22 (Oral Cavity Carcinoma)
In short: as §1

[15] = tested on: NCI-H2066 (Squamous Cell Lung Carcinoma)
In short: as §1

[16] = tested on: PANC-10-05 (Pancreatic Carcinoma)
In short: as §1

[17] = tested on: COLO-320-HSR (Colorectal Carcinoma)
In short: as §1

[18] = tested on: NCI-H64 (Small Cell Lung Carcinoma)
In short: as §1

[19] = tested on: IGR-37 (Melanoma)
In short: as §1

[20] = tested on: ECC10 (Gastric Carcinoma)
In short: as §1

SMILES | combination Emax [1] | combination Emax [2] | combination Emax [3] | combination Emax [4] | combination Emax [5] | combination Emax [6] | combination Emax [7] | combination Emax [8] | combination Emax [9] | combination Emax [10] | combination Emax [11] | combination Emax [12] | combination Emax [13] | combination Emax [14] | combination Emax [15] | combination Emax [16] | combination Emax [17] | combination Emax [18] | combination Emax [19] | combination Emax [20]
C[C@@H](c1ccc2nccn2c1)n1nnc2ncc(-c3cnn(C)c3)nc21 [Savolitinib] + CN(CC[C@H](CSC1=CC=CC=C1)NC2=C(C=C(C=C2)S(=O)(=O)NC(=O)C3=CC=C(C=C3)N4CCC(CC4)[C@H](C5=CC=CC=C5C6=CC=C(C=C6)Cl)O)S(=O)(=O)C(F)(F)F)CCO [AZD4320] (first compound max 1 µM, 7x7, partner max 1 µM) | 0.15 | 0.116 | 0.308 | 0.625 | 0.18 | 1 | 0.82 | 0.174 | 0.626 | 0.128 | 0.744 | 0.182 |  |  |  |  |  |  |  | 
Cc1c2c(nn1C)CSCc1cc(n(C)n1)CSc1cc(c3ccccc3c1)OCCCc1c(C(=O)O)n(C)c3c-2c(Cl)ccc13 [AZD5991] + Cn1cnc2c(F)c(Nc3ccc(Br)cc3Cl)c(C(=O)NOCCO)cc21 [Selumetinib] (first compound max 1 µM, 7x7, partner max 3 µM) | 0.27 | 0.739 | 0.611 | 0.932 | 0.435 | 0.247 |  | 0.569 | 0.746 | 1 | 0.22 | 0.319 | 0.998 | 0.959 | 0.258 | 0.442 | 0.801 | 0.295 | 0.996 | 0.669
CN(CCO)CC[C@H](CSc1ccccc1)Nc1ccc(S(=O)(=O)NC(=O)c2ccc(N3CCC([C@@H](O)c4ccccc4-c4ccc(Cl)cc4)CC3)cc2)cc1S(=O)(=O)C(F)(F)F [AZD4320] + C[C@@H](Nc1cc(F)cc(F)c1)c1cc(C(=O)N(C)C)cc2c(=O)cc(N3CCOCC3)oc12 [AZD8186] (first compound max 1 µM, 7x7, partner max 3 µM) | 0.214 | 0.316 | 0.911 | 0.97 | 0.434 | 1 | 0.899 | 0.294 |  | 0.761 | 0.886 | 0.386 | 0.999 | 0.838 | 0.64 | 0.383 | 0.236 | 0.967 | 0.341 | 1
C=CCn1c(=O)c2cnc(Nc3ccc(N4CCN(C)CC4)cc3)nc2n1-c1cccc(C(C)(C)O)n1 [AZD1775] + C1CN(CCC1(C(=O)N[C@@H](CCO)C2=CC=C(C=C2)Cl)N)C3=NC=NC4=C3C=CN4 [Capivasertib] (first compound max 3 µM, partner max 3 µM) | 0.178 | 0.975 | 0.671 | 0.855 | 0.781 |  | 0.983 | 0.466 | 0.704 | 0.987 | 0.641 | 0.449 | 0.856 | 0.594 | 0.685 | 0.594 | 0.854 | 0.92 | 0.813 | 0.746
C=CCn1c(=O)c2cnc(Nc3ccc(N4CCN(C)CC4)cc3)nc2n1-c1cccc(C(C)(C)O)n1 [AZD1775] + C[C@@H]1COCCN1C2=NC(=NC(=C2)C3(CC3)[S@](=N)(=O)C)C4=C5C=CNC5=NC=C4 [AZD6738] (first compound max 1 µM, partner max 10 µM) | 0.389 |  | 0.682 | 0.914 | 0.695 | 0.801 | 1 | 0.393 | 0.816 | 0.992 | 0.675 | 0.331 | 0.786 | 0.799 | 0.605 | 0.513 | 0.821 | 0.936 | 0.787 | 0.843
CCc1c2c(nc3ccc(O)cc13)-c1cc3c(c(=O)n1C2)COC(=O)[C@]3(O)CC [SN-38] + O=C(c1cc(Cc2n[nH]c(=O)c3ccccc23)ccc1F)N1CCN(C(=O)C2CC2)CC1 [Olaparib] (first compound max 0.3 µM, 7x7, partner max 10 µM) | 0.575 | 0.986 | 0.598 | 1 |  |  | 0.997 |  | 0.745 |  | 0.423 |  | 0.957 | 0.95 | 0.0964 | 0.76 | 0.261 | 0.396 | 0.863 | 1
CN(CCO)CC[C@H](CSc1ccccc1)Nc1ccc(S(=O)(=O)NC(=O)c2ccc(N3CCC([C@@H](O)c4ccccc4-c4ccc(Cl)cc4)CC3)cc2)cc1S(=O)(=O)C(F)(F)F [AZD4320] + C1CN(CCC1(C(=O)N[C@@H](CCO)C2=CC=C(C=C2)Cl)N)C3=NC=NC4=C3C=CN4 [Capivasertib] (first compound max 1 µM, 7x7, partner max 3 µM) | 0.101 | 0.291 | 0.57 | 0.805 | 0.104 | 1 | 0.841 | 0.0697 | 0.914 | 0.367 | 0.829 |  | 0.989 | 0.684 | 0.923 | 0.265 | 0.0137 | 0.95 | 0.186 | 1

— the supplement of paper PMC11061612
